Source: US20240124504A1, “AROMATIC HETEROCYCLIC COMPOUND, AND PHARMACEUTICAL COMPOSITION AND APPLICATION THEREOF” (GT APEIRON THERAPEUTICS LIMITED, priority 2020, published 2024)

Tests used:
[1] = tested on: human breast cancer cells HCC70; experiment: Cell biological activity detection (CyQuant, 72 hours), HCC70; format: cell-based; details: Homo sapiens, HCC70, 72 h, incubation for 72 hours
Method: A2780 and HCC70 cells were subjected to trypsin digestion treatment, and cell suspensions were respectively transferred to 15 mL centrifuge tubes and centrifuged for 5 min at […]) rpm; supernatant was discarded, and resuspension was carried out in a fresh medium (RPMI 1640+10% FBS), after counting, cells were seeded into a 384-well plate at 2000/well (50 μL of 1640+10% FBS medium was added to the 2nd column and the 23rd column of the 384-well plate, and 50 μL of DPBS was added to the surrounding wells). Incubation was carried out overnight in an incubator (37° C., 5% CO2).
The compound was added to the well plates the next day. The compound had the highest concentration of 10 μM and was diluted at 1:4, and there were a total of 9 concentrations; and a positive compound Paclitaxel had the highest concentration of 1 μM and was diluted at 1:3, and there were a total of 9 concentrations. The DMSO content in each well was unified to 0.2%. The cell plates were centrifuged for 30 seconds at 800 rpm and placed in an incubator (37° C., 5% CO2) for incubation for 72 hours. On the fourth day, a Cyquant reagent (3×) was formulated according to kit instructions, and formulation was carried out for each 384-well plate according to the following proportions: DPBS 11.568 mL, CyQuant®? Direct nucleic acid stain 72 μL, and CyQuant® Direct background suppressor 360 μL. After uniform mixing, the reagent was placed at room temperature for further use. The cell plates were taken out and equilibrated for 30 min at room temperature, and 25 μL of the Cyquant reagent (3×) per well was dispensed into the cells of the 384-well plates by Multi-drop, and incubation was carried out for more than 60 minutes at 37° C. Acumen plate reading (Acumen setting: an excitation wavelength of 488 nm). IC50 results were analyzed by XLFIT5 from IDBS Company.

CDK2/cyclinE1 complex = CDK2/cyclinE1 complex (Homo sapiens, UniProt P24941); experiment: In-vitro enzymatic inhibitory activity testing, CDK2 inhibition assay (Caliper EZ Reader II); format: biochemical; details: CDK2/cyclinE1 0.5 nM, 180 min at 27° C.
In short: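 CDK2/cyclinE1 (0.5 nM) phosphorylated 5-FAM-CDK7tide (2 μM) in MES buffer pH 6.5 with MgCl2, Tween 20 and BSA. Substrate and product were separated electrophoretically on a Caliper EZ Reader II. IC50 values came from nonlinear dose-response fits.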

ovarian cancer A2780 = experiment: Cell biological activity detection (CyQuant, 72 hours), A2780; format: cell-based, human; details: Homo sapiens, A2780, 72 h, A2780 cells, incubation for 72 hours
In short: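 IC50 derived from CyQuant Direct nuclear staining (488 nm excitation) after 72 h compound exposure at 37 °C, 5% CO2. Compounds tested in 9 concentrations from 10 μM, 1:4 steps, 0.2% DMSO, on A2780 or HCC70 cells plated overnight at 2000/well in RPMI 1640 + 10% FBS.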

CDK9/cyclinT1 complex = CDK9/cyclinT1 complex (Homo sapiens, UniProt P50750); experiment: In-vitro enzymatic inhibitory activity testing, CDK9 inhibition assay (Caliper EZ Reader II); format: biochemical; details: CDK9/cyclinT1 8 nM, 180 min at 27° C.
In short: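 Phosphorylated and unphosphorylated fluorescent peptide were resolved by mobility-shift electrophoresis, with IC50 taken from a nonlinear regression of dose-response data. Reactions ran 180 min at 27 °C in MES buffer pH 6.5 with MgCl2, after 10 min enzyme–compound preincubation, using 8 nM CDK9/cyclinT1 and 5-FAM-CDK9tide.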

[2] = molecular target: T1, CDK12 (aa686-1082)/cyclinK complex (Homo sapiens, UniProt Q9NYV4); experiment: In-vitro enzymatic inhibitory activity testing, CDK12 inhibition assay (Caliper EZ Reader II); format: biochemical; details: CDK12/cyclinK 50 nM, 180 min at 27° C.; read-out: CDK12 IC50
T1 construct: A CDK12 (aa686-1082)/cyclinK complex (50 nM)
In short: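 CDK12 (aa686-1082)/cyclinK complex at 50 nM was pre-incubated with compound for 10 min, then reacted 180 min at 27° C with ATP and 2 μM 5-FAM-CDK9tide in pH 6.5 MES buffer with 10 mM MgCl2. Reactions were EDTA-quenched and product resolved electrophoretically; IC50 from nonlinear curve fit.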

[3] = molecular target: CDK7/cyclinH/MAT1 complex (Homo sapiens, UniProt P50613); experiment: In-vitro enzymatic inhibitory activity testing, CDK7 inhibition assay (Caliper EZ Reader II); format: biochemical; details: CDK7/cyclinH/MAT1 6 nM, 180 min at 27° C.
In short: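 Enzyme preincubated 10 min with compound, then peptide substrate plus ATP added in 80 mM MES pH 6.5, 10 mM MgCl2 buffer; 180 min at 27 °C, stopped with EDTA.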

T1 sequence (Q9NYV4 686-1082, species assumed): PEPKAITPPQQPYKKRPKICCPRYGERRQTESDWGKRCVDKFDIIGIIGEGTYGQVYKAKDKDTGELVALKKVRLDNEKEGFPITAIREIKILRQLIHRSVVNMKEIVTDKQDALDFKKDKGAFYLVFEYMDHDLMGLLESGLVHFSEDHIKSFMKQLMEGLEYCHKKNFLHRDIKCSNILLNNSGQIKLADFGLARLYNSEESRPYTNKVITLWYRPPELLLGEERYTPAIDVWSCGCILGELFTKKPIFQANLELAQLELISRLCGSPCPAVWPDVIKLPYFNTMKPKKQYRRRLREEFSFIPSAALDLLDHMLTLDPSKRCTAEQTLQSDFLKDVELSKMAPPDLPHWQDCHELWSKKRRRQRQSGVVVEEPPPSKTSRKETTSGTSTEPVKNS
T1 sequence (O75909 whole entry partner, species assumed, the tested form may be a part): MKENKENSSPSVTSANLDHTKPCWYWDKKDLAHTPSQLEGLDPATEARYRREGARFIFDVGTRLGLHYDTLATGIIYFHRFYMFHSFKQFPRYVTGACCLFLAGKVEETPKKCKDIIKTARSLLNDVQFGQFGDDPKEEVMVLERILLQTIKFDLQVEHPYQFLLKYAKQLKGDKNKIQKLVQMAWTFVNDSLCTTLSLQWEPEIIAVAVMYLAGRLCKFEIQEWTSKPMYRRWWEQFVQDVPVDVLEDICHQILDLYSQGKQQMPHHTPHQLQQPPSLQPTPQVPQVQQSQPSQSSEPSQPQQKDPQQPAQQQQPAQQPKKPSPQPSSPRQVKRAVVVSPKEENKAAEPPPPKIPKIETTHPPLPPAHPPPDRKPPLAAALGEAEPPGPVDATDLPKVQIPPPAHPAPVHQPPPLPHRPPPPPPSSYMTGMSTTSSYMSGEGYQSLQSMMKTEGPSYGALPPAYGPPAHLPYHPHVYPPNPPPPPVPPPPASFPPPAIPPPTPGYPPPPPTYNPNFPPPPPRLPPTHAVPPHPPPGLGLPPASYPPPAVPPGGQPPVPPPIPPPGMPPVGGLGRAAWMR
CDK9/cyclinT1 complex, sequence (P50750 whole entry, species assumed): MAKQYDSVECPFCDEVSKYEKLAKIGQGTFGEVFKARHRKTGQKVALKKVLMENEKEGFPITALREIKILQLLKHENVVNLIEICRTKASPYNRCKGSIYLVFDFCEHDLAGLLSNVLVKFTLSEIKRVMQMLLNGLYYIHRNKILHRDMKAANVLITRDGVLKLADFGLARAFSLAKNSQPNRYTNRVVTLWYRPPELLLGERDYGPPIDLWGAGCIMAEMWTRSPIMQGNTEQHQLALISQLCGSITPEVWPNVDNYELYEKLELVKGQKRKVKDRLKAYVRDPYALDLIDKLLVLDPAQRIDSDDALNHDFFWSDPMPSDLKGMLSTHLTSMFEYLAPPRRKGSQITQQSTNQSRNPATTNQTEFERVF
CDK9/cyclinT1 complex, sequence (O60563 whole entry partner, species assumed): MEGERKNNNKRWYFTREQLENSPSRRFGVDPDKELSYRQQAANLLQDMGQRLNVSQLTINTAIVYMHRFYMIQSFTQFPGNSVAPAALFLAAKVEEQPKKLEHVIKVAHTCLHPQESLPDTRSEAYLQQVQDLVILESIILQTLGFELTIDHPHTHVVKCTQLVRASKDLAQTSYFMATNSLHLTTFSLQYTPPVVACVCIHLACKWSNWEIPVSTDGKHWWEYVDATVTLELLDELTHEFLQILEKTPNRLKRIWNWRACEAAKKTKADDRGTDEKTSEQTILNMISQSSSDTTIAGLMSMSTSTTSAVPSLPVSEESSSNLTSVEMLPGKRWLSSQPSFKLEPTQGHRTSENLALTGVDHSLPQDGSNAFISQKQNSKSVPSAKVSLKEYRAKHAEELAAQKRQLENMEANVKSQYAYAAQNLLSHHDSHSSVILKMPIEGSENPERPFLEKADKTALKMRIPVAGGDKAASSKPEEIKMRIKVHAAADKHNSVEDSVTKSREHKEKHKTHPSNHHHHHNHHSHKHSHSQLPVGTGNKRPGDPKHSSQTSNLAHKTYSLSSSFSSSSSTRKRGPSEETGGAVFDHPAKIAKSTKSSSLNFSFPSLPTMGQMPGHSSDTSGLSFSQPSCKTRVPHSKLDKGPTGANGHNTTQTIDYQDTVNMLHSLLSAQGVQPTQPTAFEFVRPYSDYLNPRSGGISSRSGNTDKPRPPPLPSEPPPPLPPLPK
CDK7/cyclinH/MAT1 complex, sequence (P50613 whole entry, species assumed): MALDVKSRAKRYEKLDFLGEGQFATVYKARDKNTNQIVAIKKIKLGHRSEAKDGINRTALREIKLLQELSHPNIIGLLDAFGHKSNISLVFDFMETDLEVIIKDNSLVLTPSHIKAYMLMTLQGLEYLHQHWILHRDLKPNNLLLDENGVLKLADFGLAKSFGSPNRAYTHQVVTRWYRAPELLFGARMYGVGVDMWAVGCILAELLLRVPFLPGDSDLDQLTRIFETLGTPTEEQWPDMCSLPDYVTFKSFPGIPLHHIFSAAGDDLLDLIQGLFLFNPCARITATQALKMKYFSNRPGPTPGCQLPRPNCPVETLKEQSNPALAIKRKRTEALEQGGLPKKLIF
CDK7/cyclinH/MAT1 complex, sequence (P51946 whole entry partner, species assumed): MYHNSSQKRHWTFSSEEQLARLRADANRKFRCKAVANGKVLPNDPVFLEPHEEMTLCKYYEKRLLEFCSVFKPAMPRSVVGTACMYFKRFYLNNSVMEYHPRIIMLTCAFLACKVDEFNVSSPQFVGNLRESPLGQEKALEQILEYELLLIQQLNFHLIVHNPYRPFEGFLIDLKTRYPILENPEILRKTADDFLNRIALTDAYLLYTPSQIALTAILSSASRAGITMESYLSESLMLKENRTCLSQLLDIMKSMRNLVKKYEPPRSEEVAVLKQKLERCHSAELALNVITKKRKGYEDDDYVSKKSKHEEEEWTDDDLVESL
CDK7/cyclinH/MAT1 complex, sequence (P51948 whole entry partner, species assumed): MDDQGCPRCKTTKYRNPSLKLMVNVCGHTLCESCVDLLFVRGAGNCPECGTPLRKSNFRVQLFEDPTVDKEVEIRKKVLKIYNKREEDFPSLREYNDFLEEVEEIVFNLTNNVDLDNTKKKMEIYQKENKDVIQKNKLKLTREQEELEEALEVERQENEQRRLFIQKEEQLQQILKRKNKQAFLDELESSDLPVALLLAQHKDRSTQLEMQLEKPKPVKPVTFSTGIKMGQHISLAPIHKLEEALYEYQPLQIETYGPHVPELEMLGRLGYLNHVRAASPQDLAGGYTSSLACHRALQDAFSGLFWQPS

Work on FC(F)(F)c1cnc(NC2CCCC3(CCNCC3)C2)nc1-c1c[nH]c2nc(N3CCOCC3)ccc12 (stereo not drawn) [Compound 41, N-(4-(6-morpholinyl-1H-pyrrolo[2,3-b]pyridin-3-yl)-5-(trifluoromethyl)pyrimidin-2-yl)-3-azaspiro[5.5]undecan-8-amine] yielded an IC50 [1] of 0.2 to 5 µM, an IC50 (CDK2/cyclinE1 complex) of 5 to 50 µM and an IC50 (ovarian cancer A2780) of 0.02 to 0.2 µM. It also gave an IC50 (CDK9/cyclinT1 complex) of 5 to 50 µM, an IC50 [2] of 5 to 50 µM and an IC50 [3] of 0.02 to 0.2 µM.
FC(F)(F)c1cnc(NC2C3CNCC32)nc1-c1c[nH]c2nc(N3CCOCC3)ccc12 (stereo not drawn) [Compound 46, N-(4-(6-morpholinyl-1H-pyrrolo[2,3-b]pyridin-3-yl)-5-(trifluoromethyl)pyrimidin-2-yl)-3-azabicyclo[3.1.0]n-hexan-6-amine] was tested, and the IC50 [1] was 0.2 to 5 µM, the IC50 (CDK2/cyclinE1 complex) was 5 to 50 µM and the IC50 (ovarian cancer A2780) was 0.2 to 5 µM. It also gave an IC50 (CDK9/cyclinT1 complex) of 5 to 50 µM, an IC50 [2] of 5 to 50 µM and an IC50 [3] of 0.2 to 5 µM.
FC(F)(F)c1cnc(NC2CCCNCC2)nc1-c1c[nH]c2nc(N3CCOCC3)ccc12 (stereo not drawn) [Compound 47, N-(4-(6-morpholinyl-1H-pyrrolo[2,3-b]pyridin-3-yl)-5-(trifluoromethyl)pyrimidin-2-yl)azepan-4-amine] gave an IC50 [1] of 0.2 to 5 µM, an IC50 (CDK2/cyclinE1 complex) of 5 to 50 µM and an IC50 (ovarian cancer A2780) of 0.2 to 5 µM. The IC50 (CDK9/cyclinT1 complex) was 5 to 50 µM, the IC50 [2] was 5 to 50 µM and the IC50 [3] was 0.02 to 0.2 µM.
FC(F)(F)c1cnc(NC2COC3(CCCNC3)C2)nc1-c1c[nH]c2nc(N3CCOCC3)ccc12 (stereo not drawn) [Compound 50, N-(4-(6-morpholinyl-1H-pyrrolo[2,3-b]pyridin-3-yl)-5-(trifluoromethyl)pyrimidin-2-yl)-1-oxa-7-azaspiro[4.5]decan-3-amine] was tested, and the IC50 [1] was 0.2 to 5 µM, the IC50 (CDK2/cyclinE1 complex) was 5 to 50 µM and the IC50 (ovarian cancer A2780) was 0.2 to 5 µM. It also gave an IC50 (CDK9/cyclinT1 complex) greater than 50 µM, an IC50 [2] of 5 to 50 µM and an IC50 [3] of 0.2 to 5 µM.
FC(F)(F)c1cnc(NC2COC3(CCNCC3)C2)nc1-c1c[nH]c2nc(N3CCOCC3)ccc12 (stereo not drawn) [Compound 51, N-(4-(6-morpholinyl-1H-pyrrolo[2,3-b]pyridin-3-yl)-5-(trifluoromethyl)pyrimidin-2-yl)-1-oxa-8-azaspiro[4.5]decan-3-amine] was tested, and the IC50 [1] was 0.2 to 5 µM, the IC50 (CDK2/cyclinE1 complex) was 5 to 50 µM and the IC50 (ovarian cancer A2780) was 0.2 to 5 µM. It also gave an IC50 (CDK9/cyclinT1 complex) of 5 to 50 µM, an IC50 [2] of 5 to 50 µM and an IC50 [3] of 0.2 to 5 µM.
Compound FC(F)(F)c1cnc(NCC2CCNC2)nc1-c1c[nH]c2nc(N3CCOCC3)ccc12 (stereo not drawn) [Compound 52, 4-(6-morpholinyl-1H-pyrrolo[2,3-b]pyridin-3-yl)-N-(pyrrolidin-3-ylmethyl)-5-(trifluoromethyl)pyrimidin-2-amine] has an IC50 [1] of 0.2 to 5 µM, an IC50 (CDK2/cyclinE1 complex) of 5 to 50 µM and an IC50 (ovarian cancer A2780) of 0.2 to 5 µM. The IC50 (CDK9/cyclinT1 complex) was 5 to 50 µM, the IC50 [2] was 5 to 50 µM and the IC50 [3] was 0.02 to 0.2 µM.
C[C@@H]1C[C@H](Nc2ncc(C(F)(F)F)c(-c3c[nH]c4nc(N5CCOCC5)ccc34)n2)CCN1 [Compound 54, N-((2R,4R)-2-methylpiperidin-4-yl)-4-(6-morpholinyl-1H-pyrrolo[2,3-b]pyridin-3-yl)-5-(trifluoromethyl)pyrimidin-2-amine] was tested, and the IC50 [1] was 0.2 to 5 µM, the IC50 (CDK2/cyclinE1 complex) was 5 to 50 µM and the IC50 (ovarian cancer A2780) was 0.2 to 5 µM. For the same compound, the IC50 (CDK9/cyclinT1 complex) was greater than 50 µM, the IC50 [2] was 5 to 50 µM and the IC50 [3] was 0.02 to 0.2 µM.
FC(F)(F)c1cnc(NC2CCC3CNCC32)nc1-c1c[nH]c2nc(N3CCOCC3)ccc12 (stereo not drawn) [Compound 55, N-(4-(6-morpholinyl-1H-pyrrolo[2,3-b]pyridin-3-yl)-5-(trifluoromethyl)pyrimidin-2-yl)octahydrocyclopenta[c]pyrrol-4-amine] gave an IC50 [1] of 0.2 to 5 µM, an IC50 (CDK2/cyclinE1 complex) of 5 to 50 µM and an IC50 (ovarian cancer A2780) of 0.02 to 0.2 µM. It also gave an IC50 (CDK9/cyclinT1 complex) greater than 50 µM, an IC50 [2] greater than 50 µM and an IC50 [3] of 0.02 to 0.2 µM.
For FC(F)(F)c1cnc(NC2COC23CNC3)nc1-c1c[nH]c2nc(N3CCOCC3)ccc12 (stereo not drawn) [Compound 58, N-(4-(6-morpholinyl-1H-pyrrolo[2,3-b]pyridin-3-yl)-5-(trifluoromethyl)pyrimidin-2-yl)-1-oxa-6-azaspiro[3.3]heptan-3-amine], the IC50 [1] was 0.02 to 0.2 µM, the IC50 (CDK2/cyclinE1 complex) was 5 to 50 µM and the IC50 (ovarian cancer A2780) was 0.2 to 5 µM. It also gave an IC50 (CDK9/cyclinT1 complex) greater than 50 µM, an IC50 [2] greater than 50 µM and an IC50 [3] of 0.02 to 0.2 µM.
